Converted amounts (≈) assume the structure as drawn. “And” between values parts separate entries of the source, which are not always exact repeats. Equal values may be shown once. Read-outs that look alike come from different tables or passages of the source.
Tests used:
electric-eel AChE = electric-eel AChE (Electrophorus electricus, UniProt O42275); assay: In vitro acetylcholinesterase inhibition; assay type: biochemical
[1] = test system: Spodoptera frugiperda larvae; assay: whole plant or invertebrate; assay type: in vivo; conditions: for Antifeedant activity CE50 / Antifeedant activity CE50 (µg/mL): S. frugiperda larvae, no-choice; for Antifeedant activity CE50 / Antifeedant activity CE50 (µg/mL) / EC50: 95% confidence limits in parentheses; for EC50: Spodoptera frugiperda, in Zea mays, read-out: Antifeedant activity CE50 (µg/mL), S. frugiperda larvae, no-choice
[2] = test system: Spodoptera frugiperda larvae; assay type: in vivo
Artemia salina larvae = assay: Brine shrimp lethality; conditions: A. salina nauplii; 95% confidence limits in parentheses
[3] = S. frugiperda larvae, topical application, 95% confidence limits in parentheses

Chain of electric-eel AChE (O42275 24-633): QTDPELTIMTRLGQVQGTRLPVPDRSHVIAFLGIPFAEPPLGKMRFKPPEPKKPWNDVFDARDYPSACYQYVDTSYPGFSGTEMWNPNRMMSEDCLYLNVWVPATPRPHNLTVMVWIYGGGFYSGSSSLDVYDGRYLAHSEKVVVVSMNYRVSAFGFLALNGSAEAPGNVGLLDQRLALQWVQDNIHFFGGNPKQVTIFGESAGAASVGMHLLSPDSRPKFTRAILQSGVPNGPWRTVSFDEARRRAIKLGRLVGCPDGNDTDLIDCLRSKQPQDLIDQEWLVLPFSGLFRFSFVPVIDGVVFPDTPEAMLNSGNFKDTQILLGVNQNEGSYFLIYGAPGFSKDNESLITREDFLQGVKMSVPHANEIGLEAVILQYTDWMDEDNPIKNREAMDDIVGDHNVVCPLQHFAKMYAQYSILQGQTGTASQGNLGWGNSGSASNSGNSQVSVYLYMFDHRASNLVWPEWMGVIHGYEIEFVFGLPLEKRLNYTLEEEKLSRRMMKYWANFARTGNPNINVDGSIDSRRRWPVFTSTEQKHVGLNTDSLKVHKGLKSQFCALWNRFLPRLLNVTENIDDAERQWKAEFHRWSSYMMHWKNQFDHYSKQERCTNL

| Compound | IC50 (electric-eel AChE) [µM] | Antifeedant activity CE50 [1] | Antifeedant activity CE50 (µg/mL) [1] | EC50 [1] [µg/mL] | Antifeedant index (% AI) ([1]; concentration 25 µg/mL) [%] | Antifeedant index (% AI) ([1]; concentration 50 µg/mL) [%] | Antifeedant index (% AI) ([1]; concentration 100 µg/mL) [%] | Antifeedant index (% AI) ([1]; concentration 250 µg/mL) [%] | Antifeedant index (% AI) ([1]; concentration 500 µg/mL) [%] | Antifeedant index (% AI) ([1]; concentration 1000 µg/mL) [%] | Insecticidal activity LD50 (mg/g of insect) ([2]; in vivo) | Insecticidal activity LD50 (mg/g of insect) [2, 3] | LC50 (µg/mL), toxicity in Artemia salina larvae test (Artemia salina larvae) |
| --- | --- | --- | --- | --- | --- | --- | --- | --- | --- | --- | --- | --- | --- |
| C=CCc1ccc(O)c(OC)c1 [Compound 1, Eugenol] | 180 | < 210 µg/mL | 187.7 (176.6–198.9) µg/mL | 188 (≈ 1140 µM) | 13.5 | 32.3 | 44.9 | 55.3 | 62.8 | 75.0 |  |  |  |
| C=CCc1ccc(OC)c(OC)c1 [Compound 2, O-methyleugenol] | 157 |  |  | 504 (≈ 2830 µM) |  |  |  |  |  |  |  |  |  |
| C=CCc1ccc(OC(C)=O)c(OC)c1 [Compound 6, acetyleugenol] | 184 |  |  |  |  | 17.8 | 26.7 | 36.6 | 44.4 | 55.3 | 2.02 (1.87–2.14) mg/g of insect |  |  |
| C=CCc1ccc(OC(=O)c2ccc([N+](=O)[O-])cc2)c(OC)c1 [Compound 7, O-(4-nitrobenzoyl)eugenol] | 314 |  |  | 724 (≈ 2310 µM) |  | 23.8 | 31.6 | 39.4 | 45.1 | 55.0 |  |  |  |
| C/C=C/c1ccc(OC)c(OC)c1 [Compound 9, O-methylisoeugenol] | 151 |  |  | 536 (≈ 3010 µM) |  | 20.5 | 33.2 | 40.1 | 47.3 | 58.5 |  |  |  |
| CC=Cc1ccc(OC(=O)c2ccc([N+](=O)[O-])cc2)c(OC)c1 [Compound 12, O-(4-nitrobenzoyl)isoeugenol] | 228 |  |  | 388 (≈ 1240 µM) |  | 14.4 | 30.2 | 41.5 | 52.8 | 66.9 |  |  |  |
| CCCc1ccc(O)c(OC)c1 [Compound 13, 2-methoxy-4-propylphenol] | 132 ± 2.77 |  |  | 319 (≈ 1920 µM) |  | 11.7 | 26.7 | 38.6 | 65.0 | 72.9 |  | 2.02 (1.87–2.17) mg/g of insect |  |
| COc1cc(C2OCOCC2C)ccc1O (centres unmarked) [Compound 14, 2-methoxy-4-(5-methyl-1,3-dioxan-4-yl)-phenol] | 168 |  |  | 1800 (≈ 8010 µM) |  |  | 10.5 | 20.0 | 33.2 | 41.9 |  |  |  |
| CC1(C)C(C=C(Cl)Cl)C1C(=O)OC(C#N)c1cccc(Oc2ccccc2)c1 (centres unmarked) [Cypermethrin, cypermethrin, reference compound] |  |  | 23.83 (22.55–25.15) µg/mL | 23.9 (≈ 57.3 µM) | 49.2 | 56.0 | 61.0 | 66.5 | 72.7 | 77.9 |  |  | 404.2 (383.2–425.2) µg/mL |
| CNC(=O)ON=C(C)SC [Methomyl, methomyl, reference compound] | 1.91 |  |  |  |  |  |  |  |  |  |  | 0.31 (0.29–0.33) mg/g of insect | 205.2 (184.9–225.5) µg/mL |
| Isoeugenol [Compound 8] |  | 158.51 µg/mL and < 210 µg/mL | 158.5 (149.3–167.8) µg/mL |  | 15.6 | 37.3 | 45.6 | 56.6 | 65.9 | 78.5 |  |  |  |

From PMC6864136 (Saudi Journal of Biological Sciences, 2018)
